Experimental data taken from patent publication US6649398B2, “Method for inducing bacterial growth using autoinducers” (University of Leicester, priority 1997, dated 2003).

Legend:
bacteria = assay: Growth stimulation assay (serum assay); type: cell-based; conditions: for Stimulation of growth and autoinducer production in serum assay: equivalent mM concentrations
Acinetobacter lwoffii = assay: Growth response in serum-SAPI medium (CFU/ml); type: cell-based; conditions: control 1.0 × 10^4
Description: (§1) Bacteria (approximately 50-500 cfu/ml) are inoculated into SAPI minimal medium (6.25 mM NH4NO3, 1.84 mM KH2PO4, 3.35 mM KCl, 1.01 mM MgSO4 and 2.77 mM glucose, pH 7.5) supplemented with 30% (v/v) adult bovine serum (Sigma), and either 1% (v/v) previously made E.coli autoinducer or 50 mM norepinephrine.
(§2) The cultures are grown statically (i.e. without aeration by shaking) for 24 hours at 37° C. in a 5% CO2 incubator.
(§3) It has been shown that certain of these bacteria respond to norepinephrine (NE) and synthesise their own autoinducers, all of which are heat-stable low molecular weight molecules (less than 1000 Da) similar in size to the E. coli autoinducer (Table 4, FIG. 5).

Citrobacter freundii = assay: Growth response in serum-SAPI medium (CFU/ml); type: cell-based; conditions: control 1.9 × 10^6
Description: as §1, §2, §3

Enterobacter aerogenes = assay: Growth response in serum-SAPI medium (CFU/ml); type: cell-based; conditions: control 3.2 × 10^8
Description: as §1, §2, §3

Enterobacter agglomerans = assay: Growth response in serum-SAPI medium (CFU/ml); type: cell-based; conditions: control 2.9 × 10^4
Description: as §1, §2, §3

Enterobacter cloacae = assay: Growth response in serum-SAPI medium (CFU/ml); type: cell-based; conditions: control 7.2 × 10^6
Description: as §1, §2, §3

Enterobacter sakazaki = assay: Growth response in serum-SAPI medium (CFU/ml); type: cell-based; conditions: control 3.0 × 10^6
Description: as §1, §2, §3

Enterococcus faecalis = assay: Growth response in serum-SAPI medium (CFU/ml); type: cell-based; conditions: control 5.0 × 10^5
Description: as §1, §2, §3

Enterococcus faecium = assay: Growth response in serum-SAPI medium (CFU/ml); type: cell-based; conditions: control 2.1 × 10^5
Description: as §1, §2, §3

Escherichia coli = assay: Growth response in serum-SAPI medium (CFU/ml); type: cell-based; conditions: control 7.5 × 10^4
Description: as §1, §2, §3

Hafnia alvei = assay: Growth response in serum-SAPI medium (CFU/ml); type: cell-based; conditions: control 1.2 × 10^4
Description: as §1, §2, §3

Klebsiella oxytoca = assay: Growth response in serum-SAPI medium (CFU/ml); type: cell-based; conditions: control 4.2 × 10^4
Description: as §1, §2, §3

Klebsiella pneumoniae = assay: Growth response in serum-SAPI medium (CFU/ml); type: cell-based; conditions: control 3.1 × 10^4
Description: as §1, §2, §3

Listeria monocytogenes = assay: Growth response in serum-SAPI medium (CFU/ml); type: cell-based; conditions: control 2.5 × 10^5
Description: as §1, §2, §3

Morganella morganii = assay: Growth response in serum-SAPI medium (CFU/ml); type: cell-based; conditions: control 3.7 × 10^4
Description: as §1, §2, §3

Proteus mirabilis = assay: Growth response in serum-SAPI medium (CFU/ml); type: cell-based; conditions: control 1.1 × 10^3
Description: as §1, §2, §3

Pseudomonas aeruginosa = assay: Growth response in serum-SAPI medium (CFU/ml); type: cell-based; conditions: control 3.7 × 10^4
Description: as §1, §2, §3

[1] = system: Salmonella enterica sv Enteriditis; assay: Growth response in serum-SAPI medium (CFU/ml); type: cell-based; conditions: control 7.5 × 10^5
Description: as §1, §2, §3

Serratia marcescens = assay: Growth response in serum-SAPI medium (CFU/ml); type: cell-based; conditions: control 8.5 × 10^7
Description: as §1, §2, §3

Staphylococcus albus = assay: Growth response in serum-SAPI medium (CFU/ml); type: cell-based; conditions: control 1.1 × 10^3
Description: as §1, §2, §3

Staphylococcus aureus = assay: Growth response in serum-SAPI medium (CFU/ml); type: cell-based; conditions: control 3.2 × 10^5
Description: as §1, §2, §3

[2] = system: Streptococcus dysgalactiae; assay: Growth response in serum-SAPI medium (CFU/ml); type: cell-based; conditions: control 2.0 × 10^7
Description: as §1, §2, §3

Streptococcus sanguis = assay: Growth response in serum-SAPI medium (CFU/ml); type: cell-based; conditions: control 2.1 × 10^4
Description: as §1, §2, §3

Xanthomonas maltophilia = assay: Growth response in serum-SAPI medium (CFU/ml); type: cell-based; conditions: control 1.7 × 10^5
Description: as §1, §2, §3

Yersinia entercolitica = assay: Growth response in serum-SAPI medium (CFU/ml); type: cell-based; conditions: control 4.2 × 10^4
Description: as §1, §2, §3

[3] = cited from earlier work

In the case of `CC(=O)O` [acetate], the “Stimulation of growth and autoinducer production in serum assay” value (shortened to “Stimulation … in serum assay”) (bacteria) is reported as “not”.
In the case of `O=CO` [formate], the “Stimulation … in serum assay” value (bacteria) is reported as “not”.
With `NC[C@H](O)c1ccc(O)c(O)c1` [NE, norepinephrine] the “Response (growth), CFU/ml” value (Acinetobacter lwoffii) was 2.9 × 10^7 CFU/ml, the “Response (growth), CFU/ml” value (Citrobacter freundii) was 3.5 × 10^7 CFU/ml and the “Response (growth), CFU/ml” value (Enterobacter aerogenes) was 5.5 × 10^8 CFU/ml. For the same compound, the “Response (growth), CFU/ml” value (Enterobacter agglomerans) was 6.1 × 10^6 CFU/ml, the “Response (growth), CFU/ml” value (Enterobacter cloacae) was 1.1 × 10^8 CFU/ml and the “Response (growth), CFU/ml” value (Enterobacter sakazaki) was 4.1 × 10^7 CFU/ml. The “Response (growth), CFU/ml” value (Enterococcus faecalis) was 5.5 × 10^6 CFU/ml, the “Response (growth), CFU/ml” value (Enterococcus faecium) was 5.6 × 10^6 CFU/ml and the “Response (growth), CFU/ml” value (Escherichia coli) was 5.9 × 10^8 CFU/ml. The “Response (growth), CFU/ml” value (Hafnia alvei) was 3.7 × 10^8 CFU/ml, the “Response (growth), CFU/ml” value (Klebsiella oxytoca) was 1.6 × 10^8 CFU/ml and the “Response (growth), CFU/ml” value (Klebsiella pneumoniae) was 6.7 × 10^7 CFU/ml. The “Response (growth), CFU/ml” value (Listeria monocytogenes) was 3.5 × 10^6 CFU/ml, the “Response (growth), CFU/ml” value (Morganella morganii) was 1.6 × 10^7 CFU/ml and the “Response (growth), CFU/ml” value (Proteus mirabilis) was 1.0 × 10^7 CFU/ml. The “Response (growth), CFU/ml” value (Pseudomonas aeruginosa) was 2.1 × 10^7 CFU/ml, the “Response (growth), CFU/ml” value [1] was 1.0 × 10^8 CFU/ml and the “Response (growth), CFU/ml” value (Serratia marcescens) was 3.4 × 10^8 CFU/ml. The “Response (growth), CFU/ml” value (Staphylococcus albus) was 1.5 × 10^7 CFU/ml, the “Response (growth), CFU/ml” value (Staphylococcus aureus) was 5.7 × 10^5 CFU/ml and the “Response (growth), CFU/ml” value [2] was 2.4 × 10^6 CFU/ml. For the same compound, the “Response (growth), CFU/ml” value (Streptococcus sanguis) was 1.1 × 10^4 CFU/ml, the “Response (growth), CFU/ml” value (Xanthomonas maltophilia) was 2.1 × 10^6 CFU/ml and the “Response (growth), CFU/ml” value (Yersinia entercolitica) was 1.7 × 10^8 CFU/ml.
For `CCN(CC)CC.O=C(O)O` [TEAB, triethylammonium bicarbonate], the “Inhibition in the growth stimulation assays” value (bacteria; concentrations up to 20 mM) was “not inhibitory”.
In the case of `O=C(N[C@H]1COC(=O)[C@@H](NC(=O)c2cccc(O)c2O)COC(=O)[C@@H](NC(=O)c2cccc(O)c2O)COC1=O)c1cccc(O)c1O` [enterochelin], the “Solubility in organic solvents” value [3] is given as “soluble in organic solvents”.
With `O=C(O)O` [bicarbonate] the “Stimulation … in serum assay” value (bacteria) was “not”.
In the case of `Cl.N` [ammonium chloride], the “Stimulation … in serum assay” value (bacteria) is reported as “not”.
In the case of `N.N.O=S(=O)(O)O` [ammonium sulfate], the “Stimulation … in serum assay” value (bacteria) is reported as “can stimulate growth and autoinducer production”.
